ChEMBL document CHEMBL1201862, “PubChem BioAssay data set” (2004)
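Cells were grown in 96-well plates and exposed to each compound for 48 hours at five concentrations; endpoints were interpolated linearly between bracketing concentrations, or set to the highest concentration if not reached. The concentration for 50% growth inhibition is given as GI50.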 The source made the active and inactive calls. Cut-off read from the data, not from the text of the source: active = GI50 up to about 1.1 µM and inactive = higher.

Legend:
Experiment in all cases: NCI anticancer screen, dose series, 48 h
OVCAR-3 = system: OVCAR-3
ACHN = system: ACHN
HT-29 = system: HT-29
NCI-H23 = system: NCI-H23
SK-MEL-2 = system: SK-MEL-2
KM12 = system: KM12
A549 = system: A549
UACC-62 = system: UACC-62
DMS-273 = system: DMS-273
SF-295 = system: SF-295
K562 = system: K562
HCC 2998 = system: HCC 2998
RPMI-8226 = system: RPMI-8226
SNB-75 = system: SNB-75
LOX IMVI = system: LOX IMVI
SK-MEL-28 = system: SK-MEL-28
SW-620 = system: SW-620

Measured: GI50

Cc1cc(O)c(C=O)c(C)c1CCC1(C)C=Cc2cc(O)ccc2O1 (stereo unspecified)
inactive: OVCAR-3 18.5 µM | ACHN 15.7 µM | HT-29 31 µM | NCI-H23 16.7 µM | SK-MEL-2 24.1 µM | KM12 31.3 µM | A549 35.9 µM | UACC-62 16.7 µM | DMS-273 21.5 µM | SF-295 23.4 µM | K562 24.3 µM | HCC 2998 29.4 µM | RPMI-8226 20.9 µM | SNB-75 22.6 µM | LOX IMVI 19.6 µM | SK-MEL-28 22.7 µM | SW-620 20.9 µM

CCOC(=O)C1=C(C)C2C3C(=O)OC(=O)C3C1(C)C1C(=O)OC(=O)C21 (stereo unspecified)
inactive: OVCAR-3 > 100 µM | ACHN > 100 µM | HT-29 > 100 µM | NCI-H23 > 100 µM | SK-MEL-2 > 100 µM | KM12 > 100 µM | A549 > 100 µM | UACC-62 > 100 µM | DMS-273 > 100 µM | SF-295 > 100 µM | K562 > 100 µM | HCC 2998 > 100 µM | RPMI-8226 > 100 µM | SNB-75 > 100 µM | LOX IMVI > 100 µM | SK-MEL-28 > 100 µM | SW-620 > 100 µM

COC(=O)C1=CC(O)CCC1c1ccc(OC)cc1 (stereo unspecified)
inactive: OVCAR-3 > 100 µM | ACHN > 100 µM | HT-29 > 100 µM | NCI-H23 > 100 µM | SK-MEL-2 > 100 µM | KM12 > 100 µM | A549 > 100 µM | UACC-62 > 100 µM | DMS-273 > 100 µM | SF-295 > 100 µM | K562 > 100 µM | HCC 2998 > 100 µM | RPMI-8226 > 100 µM | SNB-75 > 100 µM | LOX IMVI > 100 µM | SK-MEL-28 > 100 µM | SW-620 > 100 µM

CCOC(=O)/C=C1\Nc2ccccc2-n2nnnc21
inactive: OVCAR-3 > 100 µM | ACHN > 100 µM | HT-29 95.5 µM | NCI-H23 > 100 µM | SK-MEL-2 > 100 µM | KM12 > 100 µM | A549 > 100 µM | UACC-62 > 100 µM | DMS-273 30.3 µM | SF-295 > 100 µM | K562 > 100 µM | HCC 2998 > 100 µM | RPMI-8226 64.9 µM | SNB-75 > 100 µM | LOX IMVI > 100 µM | SK-MEL-28 > 100 µM | SW-620 23.7 µM

CCCCCCCCCCCCCCCCNc1cccc2ccccc12
inactive: OVCAR-3 > 100 µM | ACHN > 100 µM | NCI-H23 > 100 µM | KM12 > 100 µM | A549 > 100 µM | UACC-62 > 100 µM | DMS-273 > 100 µM | SF-295 > 100 µM | K562 > 100 µM | HCC 2998 > 100 µM | RPMI-8226 > 100 µM | SNB-75 > 100 µM | LOX IMVI > 100 µM | SK-MEL-28 > 100 µM | SW-620 > 100 µM

Nc1cn(C2OC(CC(c3ccccc3)(c3ccccc3)c3ccccc3)C(O)C2O)c(=O)[nH]c1=O (stereo unspecified)
inactive: OVCAR-3 14.5 µM | ACHN > 100 µM | HT-29 23.2 µM | NCI-H23 23.5 µM | SK-MEL-2 28 µM | KM12 31.3 µM | A549 23 µM | UACC-62 14.2 µM | DMS-273 33.3 µM | SF-295 30.1 µM | K562 23.4 µM | HCC 2998 27 µM | RPMI-8226 18.7 µM | SNB-75 > 100 µM | LOX IMVI 19.1 µM | SK-MEL-28 29.3 µM | SW-620 14.8 µM

N#CCCN(CCC#N)C(=O)c1cccc(C(=O)N(CCC#N)CCC#N)c1
inactive: OVCAR-3 > 100 µM | ACHN > 100 µM | HT-29 19.1 µM | NCI-H23 > 41.9 µM | SK-MEL-2 > 100 µM | KM12 > 93.3 µM | A549 > 69.7 µM | UACC-62 > 37.3 µM | DMS-273 > 100 µM | SF-295 > 77.8 µM | K562 > 100 µM | HCC 2998 > 85.1 µM | RPMI-8226 > 50.4 µM | SNB-75 > 44.6 µM | LOX IMVI 16.4 µM | SK-MEL-28 7.45 µM | SW-620 13.4 µM

Fc1ccc(/N=C2C=C/C(=N\c3ccc(F)cc3)c3ccccc3\2)cc1
inactive: OVCAR-3 > 100 µM | ACHN > 100 µM | HT-29 > 100 µM | NCI-H23 72.1 µM | SK-MEL-2 > 100 µM | A549 > 100 µM | UACC-62 9.89 µM | DMS-273 > 100 µM | SF-295 51.4 µM | K562 > 100 µM | HCC 2998 > 100 µM | RPMI-8226 > 100 µM | SNB-75 > 100 µM | LOX IMVI > 100 µM | SK-MEL-28 > 100 µM | SW-620 > 100 µM

CC(C)C1CC(O)O[C@@H]([C@@H](C)[C@H]2CC(=O)[C@@H]3[C@@H]4[C@@H](O)[C@H](O)[C@H]5[C@@H](O)[C@H](O)CC[C@]5(C)[C@H]4CC[C@]23C)C1 (stereo partly specified)
inactive: OVCAR-3 > 100 µM | ACHN 24.4 µM | HT-29 > 100 µM | NCI-H23 36 µM | SK-MEL-2 53.6 µM | KM12 28.6 µM | A549 53.1 µM | UACC-62 79.4 µM | DMS-273 39.8 µM | SF-295 47.8 µM | K562 > 100 µM | HCC 2998 > 100 µM | SNB-75 22.2 µM | LOX IMVI 50.1 µM | SK-MEL-28 > 100 µM | SW-620 > 100 µM

COC(=O)C1C2C=CC(C2)N1[C@@H](C)c1ccccc1 (stereo partly specified)
inactive: OVCAR-3 > 100 µM | ACHN > 100 µM | HT-29 > 100 µM | NCI-H23 > 100 µM | SK-MEL-2 > 100 µM | KM12 > 100 µM | A549 > 100 µM | UACC-62 > 100 µM | DMS-273 > 100 µM | SF-295 > 100 µM | K562 > 100 µM | HCC 2998 > 100 µM | RPMI-8226 > 100 µM | SNB-75 > 100 µM | LOX IMVI > 100 µM | SK-MEL-28 > 100 µM | SW-620 > 100 µM

Cc1cc2c(cc1C)[n+]([O-])c(C(=O)/C=C/c1ccccc1Cl)c(C)[n+]2[O-]
inactive: OVCAR-3 28.7 µM | ACHN 24.5 µM | HT-29 34.8 µM | NCI-H23 19.3 µM | SK-MEL-2 27.5 µM | KM12 31.8 µM | A549 33.9 µM | UACC-62 18.3 µM | DMS-273 29.4 µM | SF-295 32.1 µM | K562 37.9 µM | HCC 2998 17.1 µM | RPMI-8226 45 µM | SNB-75 19.2 µM | LOX IMVI 31 µM | SK-MEL-28 26.9 µM | SW-620 35.1 µM

Fc1ccc(F)c(C2SCc3nc4ccccc4n32)c1 (stereo unspecified)
inactive: OVCAR-3 54.6 µM | ACHN 98.4 µM | HT-29 86.3 µM | NCI-H23 46.2 µM | KM12 72.6 µM | A549 71.4 µM | UACC-62 91.6 µM | DMS-273 20.5 µM | SF-295 29.5 µM | K562 37.1 µM | HCC 2998 > 100 µM | RPMI-8226 40 µM | SNB-75 > 100 µM | LOX IMVI 65.6 µM | SW-620 > 100 µM

O=C(O)C(Cc1ccccc1)N1C(=O)N/C(=C\c2ccc(F)cc2)C1=O (stereo unspecified)
inactive: ACHN > 100 µM | HT-29 > 100 µM | NCI-H23 > 100 µM | SK-MEL-2 > 100 µM | KM12 > 100 µM | A549 > 100 µM | UACC-62 36.7 µM | DMS-273 > 100 µM | SF-295 > 100 µM | K562 > 100 µM | HCC 2998 > 100 µM | RPMI-8226 > 100 µM | SNB-75 > 100 µM | LOX IMVI > 100 µM | SW-620 > 100 µM

O=C(CC1(O)C(=O)Nc2ccc([N+](=O)[O-])cc21)c1ccc2ccccc2c1 (stereo unspecified)
inactive: OVCAR-3 > 100 µM | ACHN > 100 µM | HT-29 > 100 µM | NCI-H23 > 100 µM | SK-MEL-2 > 100 µM | KM12 > 100 µM | A549 > 100 µM | UACC-62 > 100 µM | DMS-273 > 100 µM | SF-295 > 100 µM | K562 > 100 µM | HCC 2998 > 100 µM | RPMI-8226 > 100 µM | SNB-75 > 100 µM | SK-MEL-28 > 100 µM | SW-620 > 100 µM

O=C(Nc1ccc(Cl)cc1Cl)C1C(=O)N(c2ccc(Cl)cc2Cl)C(=O)/C1=N\Nc1ccc([N+](=O)[O-])cc1[N+](=O)[O-] (stereo unspecified)
inactive: OVCAR-3 47.2 µM | ACHN 74.5 µM | HT-29 35.8 µM | NCI-H23 23.9 µM | SK-MEL-2 42.9 µM | KM12 34.5 µM | A549 > 100 µM | UACC-62 15.8 µM | DMS-273 46.6 µM | SF-295 45.3 µM | K562 14.7 µM | HCC 2998 37.6 µM | RPMI-8226 22.7 µM | SNB-75 27.3 µM | SK-MEL-28 47.8 µM | SW-620 > 100 µM

O=C(/C=N/O)Nc1ccc(Cl)c(I)c1
inactive: OVCAR-3 13.6 µM | ACHN 16.7 µM | HT-29 33.3 µM | NCI-H23 17.8 µM | SK-MEL-2 15.7 µM | KM12 20.6 µM | A549 26.9 µM | UACC-62 10.2 µM | DMS-273 18.4 µM | SF-295 29.5 µM | K562 24 µM | HCC 2998 14.1 µM | RPMI-8226 20 µM | LOX IMVI 11.1 µM | SK-MEL-28 27.7 µM | SW-620 34.4 µM
